Experimental data: patent US8062662B2, “Liposomes containing an entrapped compound in supersaturated solution” (Alza Corporation, priority 2000, dated 2011)

Assay: [1H,15N] HSQC NMR / HPLC: reactivity of cisplatin with histidine and leakage from liposomes
Assay type: physicochemical
Conditions: 24-hour incubation, 1:1 mole ratio with N-acetyl histidine
Source text: Inverse detection experiments detect the protons that are coupled to ^15N and thus provide information about the chemical shifts and coupling constants of the ^15N which depend on the ligands in the first coordination sphere of the Pt and on its oxidation state. […] HSQC and HMQC are two-dimensional inverse detection experiments that have the proton chemical shifts on one axis and the ^15N chemical shifts on the second axis. HSQC and HMQC of ^15N-labeled Pt complexes have been used successfully, to detect micromolar concentrations of Pt complexes. In the studies performed in support of the invention, HSQC was used, since it gives narrower lines and better resolution than HMQC. […] In addition to the tremendous gain in sensitivity, HSQC selectively detects only the protons that are coupled to the ^15N, thus ignoring all the other protons in the solution (from the liposomes) and simplifying the interpretation of the data.
These associations are irreversible, thus making the drug unavailable, once bound.
A similar study was carried out with N-BOC-methionine.
Lipids (HSPC/cholesterol/^2000PEG-DSPE 51:44:5) were dissolved in ethanol. […] Aliquots of the liposomes and of both precipitates were analyzed by heteronuclear single quantum coherence (HSQC) at 30° C. […]
All [^1H, ^15N] […] The 2D data were recorded using Bruker sequence of […] […]

SMILES: N.N.[Cl][Pt][Cl] [^15N-cisplatin, cis-^15N-diamminedichloroplatinum(II)]
- cisplatin-histidine species, share of the platinum detected (HPLC): 20-30%
